Data reported in patent US20250179103A1, “6-OXODECAHYDROPYRROLO[1,2-A][1,5]DIAZOCINE AND 6-OXODECAHYDRO-4H-PYRROLO[2,1-D][1,5]THIAZOCINE DERIVATIVES AS STAT3 AND STAT6 MODULATORS FOR THE TREATMENT OF CANCER AND INFLAMMATORY CONDITIONS” (Recludix Pharma, Inc., priority 2022, published 2025).

Assays:
[1] = target: T1, Recombinant STAT3 protein (STAT3(G127-I722)) (Homo sapiens, UniProt P40763); assay: STAT3 Fluorescence Polarization (FP) Assay; assay type: binding; conditions: STAT3(G127-I722) 25 nM, probe 5-FAM-GpYLPQTV-NH2 2 nM, 45-minute incubation
T1 construct: Recombinant STAT3 protein (STAT3(G127-I722))
In short: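 STAT3(G127-I722), 25 nM, was mixed with 2 nM 5-FAM-GpYLPQTV-NH2 probe in HEPES pH 7.4 buffer with 1% DMSO and serially diluted compound. FP (mP) was read after 45 min at room temperature. IC50 came from nonlinear regression.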

[2] = target: T2, Recombinant STAT6 protein (STAT6(W123-T658)) (Homo sapiens, UniProt P42226); assay: STAT6 Fluorescence Polarization (FP) Assay; assay type: binding; conditions: STAT6(W123-T658) 250 nM, probe 5-FAM-ApYKPFQDLI-NH2 2 nM, 45-minute incubation
T2 construct: Recombinant STAT6 protein (STAT6(W123-T658))
T2 sequence (P42226 123-658): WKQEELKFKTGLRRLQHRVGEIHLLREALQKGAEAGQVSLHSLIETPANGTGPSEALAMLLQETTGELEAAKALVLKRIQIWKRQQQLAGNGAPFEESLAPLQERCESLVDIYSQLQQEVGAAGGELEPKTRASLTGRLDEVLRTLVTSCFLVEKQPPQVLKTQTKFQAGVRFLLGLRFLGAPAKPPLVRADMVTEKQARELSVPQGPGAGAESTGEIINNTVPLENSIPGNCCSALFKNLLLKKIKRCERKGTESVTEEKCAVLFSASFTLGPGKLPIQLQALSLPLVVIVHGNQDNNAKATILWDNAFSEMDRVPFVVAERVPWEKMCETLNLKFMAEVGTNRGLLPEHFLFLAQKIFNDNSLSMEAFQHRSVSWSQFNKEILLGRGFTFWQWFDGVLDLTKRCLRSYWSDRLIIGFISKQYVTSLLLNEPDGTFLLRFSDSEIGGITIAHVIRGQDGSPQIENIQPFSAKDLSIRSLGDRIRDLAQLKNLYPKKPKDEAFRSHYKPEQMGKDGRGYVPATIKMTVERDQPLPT
In short: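 Displacement of a fluorescent phosphotyrosine peptide (5-FAM-ApYKPFQDLI-NH2, 2 nM) from STAT6(W123-T658) (250 nM), 1% DMSO, pH 7.4 HEPES buffer. After 45 min at room temperature, polarization (mP) was plotted versus log compound concentration and fitted by nonlinear regression to give IC50.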

T1 sequence (P40763 127-722): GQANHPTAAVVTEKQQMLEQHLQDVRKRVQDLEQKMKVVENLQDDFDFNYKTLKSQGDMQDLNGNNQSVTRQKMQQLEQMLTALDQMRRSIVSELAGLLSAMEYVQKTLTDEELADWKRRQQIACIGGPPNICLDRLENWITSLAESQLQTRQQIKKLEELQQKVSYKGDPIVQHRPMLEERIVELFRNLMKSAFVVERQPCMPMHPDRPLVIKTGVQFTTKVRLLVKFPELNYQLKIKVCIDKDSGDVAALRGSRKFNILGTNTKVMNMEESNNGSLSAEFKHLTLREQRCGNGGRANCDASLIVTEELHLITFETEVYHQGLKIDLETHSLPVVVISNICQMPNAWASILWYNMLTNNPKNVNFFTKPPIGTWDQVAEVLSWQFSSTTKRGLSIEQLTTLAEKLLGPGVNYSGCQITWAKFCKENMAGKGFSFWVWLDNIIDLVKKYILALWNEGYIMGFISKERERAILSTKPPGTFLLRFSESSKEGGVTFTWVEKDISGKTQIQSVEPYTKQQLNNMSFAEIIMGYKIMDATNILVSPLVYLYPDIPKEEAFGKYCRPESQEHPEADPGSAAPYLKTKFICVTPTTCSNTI

SMILES	IC50 [1]	IC50 [2]
CC(=O)N1CC[C@H]2CC[C@@H](C(=O)N3C[C@@H]4[C@H](C3)[C@H]3CS(=O)(=O)C[C@@H]43)N2C(=O)[C@@H](NC(=O)c2cc3cc(C(F)(F)P(=O)(O)O)ccc3s2)C1 [Compound 79, ((2-(((5S,8S,10aR)-3-acetyl-8-((3aR,3bS,6aR,6bS)-2,2-dioxidooctahydro-1H-thieno[3′,4′:3,4]cyclobuta[1,2-c]pyrrole-5-carbonyl)-6-oxodecahydropyrrolo[1,2-a][1,5]diazocin-5-yl)carbamoyl)benzo[b]thiophen-5-yl)difluoromethyl)phosphonic acid]	0.1 to 1 µM	0.3 to 3 µM
CC(=O)N1CC[C@H]2CC[C@@H](C(=O)N3CC4CCS(=O)(=O)CC4C3)N2C(=O)[C@@H](NC(=O)c2cc3cc(C(F)(F)P(=O)(O)O)ccc3s2)C1 (stereo partly drawn) [Compound 80, ((2-(((5S,8S,10aR)-3-acetyl-8-(5,5-dioxidooctahydrothiopyrano[3,4-c]pyrrole-2-carbonyl)-6-oxodecahydropyrrolo[1,2-a][1,5]diazocin-5-yl)carbamoyl)benzo[b]thiophen-5-yl)difluoromethyl)phosphonic acid]	0.1 to 1 µM	0.3 to 3 µM
CC(=O)N1CC[C@H]2CC[C@@H](C(=O)N3CCC(c4cnc5n4CCCC5)C3)N2C(=O)[C@@H](NC(=O)c2cc3cc(C(F)(F)P(=O)(O)O)ccc3s2)C1 (stereo partly drawn) [Compound 81, ((2-(((5S,8S,10aR)-3-acetyl-6-oxo-8-(3-(5,6,7,8-tetrahydroimidazo[1,2-a]pyridin-3-yl)pyrrolidine-1-carbonyl)decahydropyrrolo[1,2-a][1,5]diazocin-5-yl)carbamoyl)benzo[b]thiophen-5-yl)difluoromethyl)phosphonic acid]	0.1 to 1 µM	0.3 to 3 µM
CC(=O)N1CC[C@H]2CC[C@@H](C(=O)N3CCC(OCc4cncs4)C3)N2C(=O)[C@@H](NC(=O)c2cc3cc(C(F)(F)P(=O)(O)O)ccc3s2)C1 (stereo partly drawn) [Compound 82, ((2-(((5S,8S,10aR)-3-acetyl-6-oxo-8-(3-(thiazol-5-ylmethoxy)pyrrolidine-1-carbonyl)decahydropyrrolo[1,2-a][1,5]diazocin-5-yl)carbamoyl)benzo[b]thiophen-5-yl)difluoromethyl)phosphonic acid]	1 to 10 µM	0.3 to 3 µM
COC1CCN(C2CCN(C(=O)[C@@H]3CC[C@@H]4CCN(C(C)=O)C[C@H](NC(=O)c5cc6cc(C(F)(F)P(=O)(O)O)ccc6s5)C(=O)N43)C2)CC1 (stereo partly drawn) [Compound 83, ((2-(((5S,8S,10aR)-3-acetyl-8-(3-(4-methoxypiperidin-1-yl)pyrrolidine-1-carbonyl)-6-oxodecahydropyrrolo[1,2-a][1,5]diazocin-5-yl)carbamoyl)benzo[b]thiophen-5-yl)difluoromethyl)phosphonic acid]	1 to 10 µM	3 to 30 µM
CC(=O)Nc1ccn(C2CCN(C(=O)[C@@H]3CC[C@@H]4CCN(C(C)=O)C[C@H](NC(=O)c5cc6cc(C(F)(F)P(=O)(O)O)ccc6s5)C(=O)N43)C2)n1 (stereo partly drawn) [Compound 84, ((2-(((5S,8S,10aR)-8-(3-(3-acetamido-1H-pyrazol-1-yl)pyrrolidine-1-carbonyl)-3-acetyl-6-oxodecahydropyrrolo[1,2-a][1,5]diazocin-5-yl)carbamoyl)benzo[b]thiophen-5-yl)difluoromethyl)phosphonic acid]	0.1 to 1 µM	0.3 to 3 µM
CC(=O)N1CC[C@H]2CC[C@@H](C(=O)N3CCC(N(Cc4noc(C5CC5)n4)C(C)=O)C3)N2C(=O)[C@@H](NC(=O)c2cc3cc(C(F)(F)P(=O)(O)O)ccc3s2)C1 (stereo partly drawn) [Compound 85, ((2-(((5S,8S,10aR)-3-acetyl-8-(3-(N-((5-cyclopropyl-1,2,4-oxadiazol-3-yl)methyl)acetamido)pyrrolidine-1-carbonyl)-6-oxodecahydropyrrolo[1,2-a][1,5]diazocin-5-yl)carbamoyl)benzo[b]thiophen-5-yl)difluoromethyl)phosphonic acid]	1 to 10 µM	0.3 to 3 µM
CC(=O)N1CC[C@H]2CC[C@@H](C(=O)N3Cc4cnn(-c5ccccc5)c4C3)N2C(=O)[C@@H](NC(=O)c2cc3cc(C(F)(F)P(=O)(O)O)ccc3s2)C1 [Compound 86, ((2-(((5S,8S,10aR)-3-acetyl-6-oxo-8-(1-phenyl-1,4,5,6-tetrahydropyrrolo[3,4-c]pyrazole-5-carbonyl)decahydropyrrolo[1,2-a][1,5]diazocin-5-yl)carbamoyl)benzo[b]thiophen-5-yl)difluoromethyl)phosphonic acid]	≤ 0.1 µM	0.3 to 3 µM
CC(=O)N1CC[C@H]2CC[C@@H](C(=O)N3Cc4cnn(-c5ncccn5)c4C3)N2C(=O)[C@@H](NC(=O)c2cc3cc(C(F)(F)P(=O)(O)O)ccc3s2)C1 [Compound 87, ((2-(((5S,8S,10aR)-3-acetyl-6-oxo-8-(1-(pyrimidin-2-yl)-1,4,5,6-tetrahydropyrrolo[3,4-c]pyrazole-5-carbonyl)decahydropyrrolo[1,2-a][1,5]diazocin-5-yl)carbamoyl)benzo[b]thiophen-5-yl)difluoromethyl)phosphonic acid]	1 to 10 µM	0.3 to 3 µM

Further lines, results first:

IC50 [1]	IC50 [2]	SMILES
≤ 0.1 µM	0.3 to 3 µM	CC(=O)N1CC[C@H]2CC[C@@H](C(=O)N3CC(C#N)(c4ccccn4)C3)N2C(=O)[C@@H](NC(=O)c2cc3cc(C(F)(F)P(=O)(O)O)ccc3s2)C1 [Compound 88, ((2-(((5S,8S,10aR)-3-acetyl-8-(3-cyano-3-(pyridin-2-yl)azetidine-1-carbonyl)-6-oxodecahydropyrrolo[1,2-a][1,5]diazocin-5-yl)carbamoyl)benzo[b]thiophen-5-yl)difluoromethyl)phosphonic acid]
1 to 10 µM	0.3 to 3 µM	CC(=O)N1CC[C@H]2CC[C@@H](C(=O)N(C)CC(C)C#N)N2C(=O)[C@@H](NC(=O)c2cc3cc(C(F)(F)P(=O)(O)O)ccc3s2)C1 (stereo partly drawn) [Compound 89, ((2-(((5S,8S,10aR)-3-acetyl-8-((2-cyanopropyl)(methyl)carbamoyl)-6-oxodecahydropyrrolo[1,2-a][1,5]diazocin-5-yl)carbamoyl)benzo[b]thiophen-5-yl)difluoromethyl)phosphonic acid]
1 to 10 µM	0.3 to 3 µM	CC(=O)N1CC[C@H]2CC[C@@H](C(=O)N(C)CCC#N)N2C(=O)[C@@H](NC(=O)c2cc3cc(C(F)(F)P(=O)(O)O)ccc3s2)C1 [Compound 90, ((2-(((5S,8S,10aR)-3-acetyl-8-((2-cyanoethyl)(methyl)carbamoyl)-6-oxodecahydropyrrolo[1,2-a][1,5]diazocin-5-yl)carbamoyl)benzo[b]thiophen-5-yl)difluoromethyl)phosphonic acid]
1 to 10 µM	0.3 to 3 µM	CC(=O)N1CC[C@H]2CC[C@@H](C(=O)N(C)CC(C)(C)O)N2C(=O)[C@@H](NC(=O)c2cc3cc(C(F)(F)P(=O)(O)O)ccc3s2)C1 [Compound 91, ((2-(((5S,8S,10aR)-3-acetyl-8-((2-hydroxy-2-methylpropyl)(methyl)carbamoyl)-6-oxodecahydropyrrolo[1,2-a][1,5]diazocin-5-yl)carbamoyl)benzo[b]thiophen-5-yl)difluoromethyl)phosphonic acid]
1 to 10 µM	0.3 to 3 µM	CC(=O)N1CC[C@H]2CC[C@@H](C(=O)N(C)CC(C)(C)C#N)N2C(=O)[C@@H](NC(=O)c2cc3cc(C(F)(F)P(=O)(O)O)ccc3s2)C1 [Compound 92, ((2-(((5S,8S,10aR)-3-acetyl-8-((2-cyano-2-methylpropyl)(methyl)carbamoyl)-6-oxodecahydropyrrolo[1,2-a][1,5]diazocin-5-yl)carbamoyl)benzo[b]thiophen-5-yl)difluoromethyl)phosphonic acid]
1 to 10 µM	0.3 to 3 µM	CC(=O)N1CC[C@H]2CC[C@@H](C(=O)N(C)C3CCN(S(C)(=O)=O)CC3)N2C(=O)[C@@H](NC(=O)c2cc3cc(C(F)(F)P(=O)(O)O)ccc3s2)C1 [Compound 93, ((2-(((5S,8S,10aR)-3-acetyl-8-(methyl(1-(methylsulfonyl)piperidin-4-yl)carbamoyl)-6-oxodecahydropyrrolo[1,2-a][1,5]diazocin-5-yl)carbamoyl)benzo[b]thiophen-5-yl)difluoromethyl)phosphonic acid]
1 to 10 µM	0.3 to 3 µM	CC(=O)N1CC[C@H]2CC[C@@H](C(=O)Nc3cnc(S(C)(=O)=O)nc3)N2C(=O)[C@@H](NC(=O)c2cc3cc(C(F)(F)P(=O)(O)O)ccc3s2)C1 [Compound 94, ((2-(((5S,8S,10aR)-3-acetyl-8-((2-(methylsulfonyl)pyrimidin-5-yl)carbamoyl)-6-oxodecahydropyrrolo[1,2-a][1,5]diazocin-5-yl)carbamoyl)benzo[b]thiophen-5-yl)difluoromethyl)phosphonic acid]
